Values of other authors as cited in patent US20040067963A1, “Methods to prevent or ameliorate trauma-related psychological disorders” (University of Florida, priority 2002, published 2004).

Columns and labels:
[1] = system: patients with combat-related PTSD; conditions: 301 patients, by week 6 of treatment, normal to upper range of usual antidepressant doses
[2] = system: patients with HRV parameters indicating autonomic dysregulation characteristic of PTSD; conditions: 16 patients, 20-60 mg of fluoxetine, vs controls
PTSD in 53 civilians = conditions: up to 60 mg/day
outpatients with PTSD = conditions: 12 week trial, 187 outpatients with PTSD, primarily female victims of sexual assault

Row | SMILES | total Treatment Outcome PTSD rating scale score, change from baseline vs placebo [1] | heart rate variability (HRV) [2] | effect on symptom severity vs placebo (PTSD in 53 civilians; by week 2-4) | effectiveness on most measures, including disability improvement, vs placebo (PTSD in 53 civilians; by week 12) | efficacy compared with placebo (outpatients with PTSD)
1 | CNCCC(Oc1ccc(C(F)(F)F)cc1)c1ccccc1 (centres unmarked) [fluoxetine] | statistically significant improvement from baseline | significantly higher HRV than controls | significantly more effect on symptom severity than placebo | more effective on most measures | 
2 | CN[C@H]1CC[C@@H](c2ccc(Cl)c(Cl)c2)c2ccccc21 [sertraline] |  |  |  |  | significant superiority
